The subject of assay [1] is HCMV AD169 virus. In words: HCMV AD169 CPE Assay (Example A). Type of assay: cell-based. The note with it: Human betaherpesvirus 5, AD169, MRC5, 216 h, MRC-5 cells, 9 days, MTS readout. How it is done:
This assay format is a CPE (Cytopathic effect)-based assay that determines the ability of compounds to protect cells against infection with a dye reduction assay (MTS of CellTiter 96® AQueous Non-Radioactive Cell Proliferation Assay from Promega). The conversion of MTS into aqueous, soluble formazan is performed by dehydrogenase enzymes found in metabolically active cells. The quantity of formazan product determined by absorbance at 490 nm is directly proportional to the number of living cells in culture.
(§1) Serial dilutions of the DMSO stock compound solution are performed using DMSO in columns 2-11 and 14-23. DMSO alone is present in columns 1, 12, 13 and 24. Four μL of the DMSO serial dilutions is obtained and diluted using […] of D-MEM 5% FBS culture medium to obtain 4% DMSO (7×).
To perform the assay, 10 µL of the freshly prepared 4% DMSO serial dilution plate is added to the assay plate containing 40 μL of MRC-5 cells plated the day before (10000 cells per well). Twenty μL of diluted virus is added to columns 2-12 and 14-24 and only D-MEM 5% FBS medium to uninfected control (columns 1 and 13) for a final DMSO concentration of 0.6%.
The virus dilution is based on the amount of virus required to obtain a Signal-to-Background of 3-4 (generally between 0.1 and 1 μL of virus stock per well or MOI=0.05). The assay plates are incubated at 37° C. with 5% CO2 for 9 days in order to obtain 100% CPE in infected control without compound (columns 12 and 24). Ten μL of freshly mixed room temperature MTS/PMS (1:20 v/v) is added and the plates are incubated at 37° C. with 5% CO2 for 4-5 h (until signal saturation at 2.3 in the 100% CPE control). The plates are sealed with TopSeal for biosafety and read on the Envision plate reader (Perkin-Elmer) or equivalent at OD 492 nm.

The test system of assay [2] is HCMV AD169-Bac-Luc2 US2-US6 clone #26 virus. In words: HCMV AD169-Bac Luciferase Assay (Example B). The settings on record: Human betaherpesvirus 5, AD169, MRC5, 72 h, read-out: EC50 Example B. Type of assay: cell-based, Human Cytomegalovirus.
Source text: This assay format is a luciferase reporter-based assay that determines the ability of compounds to inhibit the infection by detecting a luciferase signal decrease following the addition of BIGlo substrate (preparation indicated below) directly in the culture media. Mono-oxygenation of luciferin is catalyzed by luciferase in the presence of Mg2+, ATP and molecular oxygen. The generation of oxyluciferin is a luminescent reaction that can be detected with the proper platereader. Human Cytomegalovirus AD169-Bac is obtained from Dr. Thomas Shenk at Princeton University (reference paper Yu et al. 2002—J. Virol. 76 (5):2316-2328, herein incorpoarated by reference) and modified by recombineering to introduce a humanized firefly luciferase gene (Luc2) at the US2-US6 position in the HCMV genome. The virus is expanded in MRC-5 cells.
as §1
To perform the assay, 7 μL of the freshly prepared 4% DMSO serial dilution plate is added to the assay plate containing […] of MRC-5 cells plated the day before (10000 cells per well). Seventeen μL of diluted virus is added to columns 2-12 and 14-24 and only D-MEM 5% FBS medium to uninfected control (columns 1 and 13) for a final DMSO concentration of 0.6%. The virus dilution is based on the amount of virus required to obtain the highest luciferase signal possible without CPE (generally between 0.05 and 1 μL of virus stock per well or MOI=0.02). The assay plates are incubated at 37° C. with 5% CO2 for 3 days. Fifteen μL of room temperature BIGlo buffer is added to room temperature assay plates also incubated at room temperature for 15 minutes. The plates are sealed with TopSeal for biosafety and the luminescence signal is read on the TopCount plate reader (Perkin-Elmer) or equivalent.

The test system of assay [3] is HCMV AD169 virus. Kind of assay: HCMV AD169 qPCR 96-Well Assay (Example C). Type of assay: cell-based. The settings on record: Human betaherpesvirus 5, AD169, MRC5, 72 h; qPCR of viral DNA, MRC-5 cells, 3 days. How it is done: The hCMV quantitative PCR (qPCR) assay evaluates the ability of a compound to inhibit, directly or indirectly, the replication of hCMV viral DNA during the first 72 h following the infection. Compounds that inhibit either entry or the hCMV polymerase are active in this assay. Compounds are tested in the qPCR assay in 96-well plates, using a 9-point dose-response with 8 compounds for each 96-well plate. The assay was adapted from the method described by Schnepf et al., Rapid determination of antiviral drug susceptibility of human cytomegalovirus by real-time PCR, Antiviral Research 81 (2009) 64-67.
Final Concentrations: • 10 mM Tris-HCl pH8.0 • 50 mM KCl • 2 mM MgCl2 • 0.45% Tween20 • 0.45% Nonidet P40
Serial dilutions of the DMSO stock compound solution are performed using DMSO in columns 2-10. DMSO alone is present in columns 1 and 11. Column 12 remains empty. Diluted compounds are further diluted with DMEM 5% FBS cell culture medium.
To perform the assay, 25 μL of inhibitor dilutions freshly prepared is added to the assay plate containing 50 μL of MRC-5 cells plated the day before (30000 cells per well). In a 9 point dose-response, column 1 contains mock infected cells and serves at negative control, with the appropriate concentration of DMSO, columns 2 to 10 contain compound dilutions and column 11 contains infected cells, with the appropriate concentration of DMSO and serves as the positive control. Column 12 serves for the standard curve in the qPCR process. Twenty-five μL of virus diluted in DMEM 5% FBS medium (to infect at MOI=0.05) is added to columns 2-11 and only D-MEM 5% FBS medium to uninfected control (column 1) for a final DMSO concentration of 0.6%. Incubate plates at 37° C. in 5% CO2 incubator for 3 days. Whole cell lysates are then obtained by adding 100 μL of Cell lysis buffer to each well including freshly added Proteinase K at a ratio of 1:5 (i.e. 200 μL Proteinase K:1000 μL Cell Lysis buffer) and incubating the assay plate at 56° C. for 1 h. Plates are centrifuged at 1300 rpm for 2 minutes to remove any condensation before proceeding with the qPCR.
The cell lysate is carefully pipetted up and down to mix well and diluted 1:40 in H2O to give a final dilution of 1:80 relative to the 100 μL of lysis buffer that Is added to the cells. 5 μL of diluted lysate is used for the qPCR reaction. An incubation of 5 minutes at 95° C. in a PCR machine is required to inactivate the Proteinase K. The cell lysates can be stored at −20° C. or used to perform qPCR immediately.
A 81 bp fragment of US17 gene from AD169 is amplified by PCR using primers qHCMV7 and qHCMV8. The PCR product is cloned into pCR4 TOPO vector (Invitrogen) and a clone harboring the insert is selected. A mitochondrial DNA is also added to normalize the HCMV copy number. Serial dilutions of the US17 plasmid and mitochondrial DNA are performed in heat-inactivated lysis buffer at the same dilution as the cell lysates (1:80). Usually, a standard curve ranging from 10E6 to 10E2 copies (per well) is suitable.
A typical qPCR reaction consists of the following:
A qPCR cycle consists of an initial denaturation of DNA and activation of the Taq enzyme at 95° C. for 10 min followed by 45 cycles of 15 seconds at 95° C. and 1 min at 60° C. Fluorescence is measured at each cycle, following the elongation step at 60° C. The reaction, data acquisition and analysis are performed using AppliedBiosystems 7500 Real time PCR system or other suitable real-time PCR system.
Background: In qPCR the cycle at which signal appears reflects the starting amount.

In the case of `O=C(Nc1ccc(-c2cnc(NC(=O)C3(c4cccc(Cl)c4)CCC3)[nH]2)cc1)c1cscn1` [Compound 1004], the EC50 – broadly, the concentration that produces a half-maximal response – in the assay with HCMV AD169 virus [1] came to 98 nM; in assay [2] it was 7 nM. As to `O=C(Nc1ccc(-c2cnc(-c3cc(C(F)(F)F)cc(C(F)(F)F)c3)[nH]2)cc1)c1cscn1` [Compound 1016], the values for the EC50 (in the assay on HCMV AD169 virus [1]; in assay [2]) were 135 nM and 35 nM, respectively. Turning to `O=C(Nc1ccc(-c2nc(-c3cccc(C(F)(F)F)c3)nn2CCCO)cc1)c1cscn1` [Compound 1034], the EC50 came to 275 nM with HCMV AD169 virus [1] and 59 nM in assay [2]. As to `O=C(Nc1ccc(-c2cccc(-c3cccc(Cl)c3)n2)cc1)c1cocn1` [Compound 1038], the figures for the EC50 (in the assay with HCMV AD169 virus [1]; in assay [2]) were 3100 nM and 1190 nM, respectively. With `O=C(O)CCn1nc(-c2cccc(Cl)c2)nc1-c1ccc(NC(=O)c2cscn2)cc1` [Compound 1041], the EC50 in the assay with HCMV AD169 virus [1] turned out to be 4100 nM; in assay [2], 645 nM. On the same counts, the results for `O=C(Nc1ccc(-c2ncc(-c3cccc(Cl)c3)[nH]2)cc1)c1cscn1` [Compound 1045] are 345 nM and 66 nM. For `O=C(Nc1ccc(-c2ncc(-c3cccc(Cl)c3)[nH]2)cn1)c1cscn1` [Compound 1059], the half-maximal effective concentration (EC50) in assay [2] was determined as 425 nM. Consider `Cc1cccc(-c2nnc(-c3ccc(NC(=O)c4cscn4)cc3)[nH]2)c1` [Compound 1070], for which the EC50 with HCMV AD169 virus [1] stood at 510 nM; in assay [2], 93 nM. `O=C(Nc1ccc(-c2nc(-c3cccc(C(F)(F)F)c3)nn2CCCN2CCOCC2)cc1)c1cscn1` [Compound 1077]: the EC50 with HCMV AD169 virus [1] was 903 nM; in assay [2], 180 nM. In the case of `CC(c1cccc(Cl)c1)c1ncc(-c2ccc(NC(=O)c3cscn3)cc2)[nH]1` (centres unmarked) [Compound 1086], the EC50 in the assay on HCMV AD169 virus [1] turned out to be 355 nM; in assay [2] it was 118 nM. Take `CC(c1cccc(C(F)(F)F)c1)c1nc(-c2ccc(NC(=O)c3cscn3)cn2)c[nH]1` (centres unmarked) [Compound 1087]: in assay [2], the EC50 was determined as 87 nM. As to `CC(O)(c1cccc(C(F)(F)F)c1)c1nc(-c2ccc(NC(=O)c3cscn3)cn2)c[nH]1` (centres unmarked) [Compound 1092], the EC50 in assay [2] stood at 203 nM; with HCMV AD169 virus [3], 620 nM. With `Cn1c(-c2ccc(NC(=O)c3cscn3)cc2)cnc1-c1cccc(C(F)(F)F)c1` [Compound 1096], the EC50 in assay [2] is 665 nM. The same measure, in the same setting: to `C#CCn1cc(-c2ccc(NC(=O)c3cscn3)cc2)nc1-c1cccc(C(F)(F)F)c1` [Compound 1098] belongs 100 nM. As to `Cc1c(Cl)cccc1-c1cn(C)c(-c2ccc(NC(=O)c3cscn3)nc2)n1` [Compound 1103], the EC50 in assay [2] was found to be 1170 nM; with HCMV AD169 virus [3], 5800 nM. `NC(=O)CCn1nc(-c2cccc(Cl)c2)nc1-c1ccc(NC(=O)c2cscn2)cc1` [Compound 1109]: the EC50 in assay [2] stood at 185 nM; with HCMV AD169 virus [3], 455 nM.

Turning to `CC(c1cccc(C(F)(F)F)c1)c1nc(-c2ccc(NC(=O)c3cscn3)cn2)cn1CCCO` (centres unmarked) [Compound 1111], the values for the EC50 (in assay [2]; in the assay on HCMV AD169 virus [3]) were 1260 nM and 665 nM, respectively. On to `CC(O)(c1cccc(C(F)(F)F)c1)c1nc(-c2ccc(NC(=O)c3cscn3)cn2)cn1CCCO` (centres unmarked) [Compound 1113], for which the concentration for a half-maximal effect (EC50) in assay [2] was 620 nM; with HCMV AD169 virus [3], 2100 nM. As to `CC(O)(c1cccc(C(F)(F)F)c1)c1nc(-n2ccc(NC(=O)c3cscn3)cc2=O)c[nH]1` (centres unmarked) [Compound 1114], the values for the concentration for a half-maximal effect (EC50) (in assay [2]; in the assay with HCMV AD169 virus [3]) were 150 nM and 596 nM, respectively.

On to `CC(O)(c1cccc(C(F)(F)F)c1)c1nc(-c2ccc(NC(=O)c3cscn3)cn2)cn1CCCOCc1ccccc1` (centres unmarked) [Compound 1115], for which the concentration giving a half-maximal response (EC50) in assay [2] was 535 nM; in the assay on HCMV AD169 virus [3], 1160 nM. Taken in the same sequence, the figures for `CC(c1cccc(C(F)(F)F)c1)c1nc(-n2ccc(NC(=O)c3cscn3)cc2=O)c[nH]1` (centres unmarked) [Compound 1116] were 27 nM and 160 nM.

`O=C(Nc1ccn(-c2nnc(-c3cccc(Cl)c3)[nH]2)c(=O)c1)c1cscn1` [Compound 1117]: the EC50 in assay [2] was determined as 1450 nM; in the assay with HCMV AD169 virus [3], 3200 nM.

`CC(O)(c1cccc(C(F)(F)F)c1)c1nc(-n2ccc(NC(=O)c3cscn3)cc2=O)cn1CCCOCc1ccccc1` (centres unmarked) [Compound 1118]: the concentration giving a half-maximal response (EC50) worked out at 460 nM in assay [2] and 970 nM with HCMV AD169 virus [3]. Consider `CC(O)(c1cccc(C(F)(F)F)c1)c1nc(-n2ccc(NC(=O)c3cscn3)cc2=O)cn1CCCO` (centres unmarked) [Compound 1119], for which the values for the EC50 (in assay [2]; with HCMV AD169 virus [3]) were 770 nM and 2050 nM, respectively.

For the compound `O=C(Nc1ccn(-c2cccc(Oc3cccc(Cl)c3)n2)c(=O)c1)c1cscn1` [Compound 1120], the EC50 in assay [2] was 92 nM. On to `O=C(Nc1ccc(-c2nc(-c3cccc(Cl)c3)nn2CC(O)CO)cc1)c1cscn1` (centres unmarked) [Compound 1121], for which the EC50 in assay [2] worked out at 63 nM; in the assay on HCMV AD169 virus [3] it was 275 nM. `O=C(Nc1ccn(-c2cccc(-c3cccc(Cl)c3)n2)c(=O)c1)c1cscn1` [Compound 1129] had an EC50 in the assay with HCMV AD169 virus [3] of 145 nM. Still for that read-out and setting: to `CC(O)(c1cccc(C(F)(F)F)c1)c1cccc(-n2ccc(NC(=O)c3cscn3)cc2=O)n1` (centres unmarked) [Compound 1130] belongs 375 nM.

Take `O=C(Nc1ccc(-c2nnc(-c3cccc(Cl)c3)[nH]2)cc1)c1csnn1` [Compound 1133]: in the assay with HCMV AD169 virus [1], the half-maximal effective concentration (EC50) came out at 2050 nM.
